{"source": "patent US20230181503A1", "about": "“FEED ADDITIVE” (LUCTA, S.A., priority 2020, published 2023)", "test_system": "IPEC-J2 cells (pig enterocytes)", "assay": "Trans-epithelial electrical resistance (TEER) of IPEC-J2 monolayer", "format": "cell-based", "conditions": "formulations 50 μg/mL, genistein 50 μM", "description": "Formulation C with HT:MA:OA at weight ratio 11:50:23 (50 μg/mL) and formulation D with HT:MA:OA at weight ratio 12:50:15 (50 μg/mL) were also tested on a cell line of pig enterocytes (IPEC-J2), at different conditions. IPEC-J2 cells were seeded into a permeable transwells membrane insert (6.5 mm diameter, 0.4 μm pore size, 0.33 cm2, polyester, Costar) at 1×10^5 cells/cm^2 to form a confluent monolayer within 4 days. Medium was replaced 48 h post-seeded and products were added on the apical side. On day 3 post-seeded, cells were treated with LPS (50 ng/mL) on the apical side and 24 h post-LPS stimulation epithelial cell integrity was assessed through the measurement of trans-epithelial electrical resistance (TEER) using a Millicell ERS-2 Voltohmmeter (Millipore, Billerica, Mass.). For each condition, triplicates were carried out in three independent experiments. At the end of incubation apical and basal media were eliminated and RNAlater solution (1 mL/well) was added to the cells for RNA stabilization and storage. Total RNA was extracted using RNA Mini Kit columns from Ambion (Life technologies, Carlsbad, Calif.) and stored at −80° C. for subsequent retrotranscription and quantitative RT-PCR. The extraction of total RNA was carried out using PureLink™ RNA Mini Kit according to the manufacturer's protocol. […]"}
{"compound": "O=c1c(-c2ccc(O)cc2)coc2cc(O)cc(O)c12", "note": "[Genistein]", "values": [{"measurement": "TEER relative to DMSO control", "setting": "IPEC-J2, + LPS 50 ng/mL, 24 h post-LPS, LPS alone = 61.7", "value": 107, "unit": "%"}, {"measurement": "TEER relative to DMSO control", "setting": "IPEC-J2, without LPS, Control (DMSO) = 100", "value": 129, "unit": "%"}]}
